Measurements as given in US11814367B2, “Inhibitors of glycogen synthase 1 (GYS1) and methods of use thereof” (Maze Therapeutics, Inc., priority 2021, dated 2023).
One block for each compound: values may come before it.

Legend:
[1] = system: hGYS1 enzyme / glycogen synthesis in HeLa cells; test: GYS1 cell based assay (glycogen synthesis, Glucose-glo); design: species or system human; conditions: Homo sapiens, HeLa, 24 h, 24 h incubation, 20 mM glucose, geometric mean of at least 2 runs
Description: The GYS1 cell based assay is a bioluminescent assay that quantifies the glucose resulting from glycogen digestion; the quantified glucose is an indirect measure of GYS1 glycogen synthesis. Newly synthesized glycogen is digested using Glucoamylase; the resulting glucose is quantified by using the Glucose-glo assay kit from Promega. Glucose-glo works by coupling glucose oxidation and NADH production with a bioluminescent system that is activated with NADH. Glucose is oxidized by Glucose dehydrogenase and the reaction reduces NAD+ to NADH; NADH activates Reductase which reduces a pro-luciferin Reductase Substrate to luciferin. Luciferin is detected in a luciferase reaction using Ultra-Glo rLuciferase and ATP, and the luminesce produced is proportional to the glucose in the sample. The luminescence is measured as a single point read in a plate reader.
Compounds that inhibit the hGYS1 enzyme and, subsequently, the glycogen synthesis in cells, were tested using assay ready plates (white, clear bottom 384 well plates) in a final DMSO reaction volume of 1% DMSO. Compounds in the assay ready plates were mixed with media with no additives, except for 20 mM glucose prior to cell addition. HeLa cells were starved in media with no additives, except for 1× Glutamax for 24 h. Starved HeLa cells were plated, in a 1:1 ratio to the media in the assay ready plate and incubated for 24 h at 37° C. and 5% C02. Cells were washed in 1×PBS buffer and lysed in lysis buffer containing 50% 1×PBS and 25% 0.3 N HCl of the final volume in the well or reaction volume; cells were incubated with lysis buffer for 10 minutes and quenched with the remaining 25% of the reaction volume that consisted of 450 mM Tris pH 8.0. Lysates were mixed in a 1:1 ratio with Glucoamylase in 100 mM Sodium Acetate buffer, pH 5.3; the mixture was incubated for 1 h at 37° C. The digested lysate was mixed in a 1:1 ratio with Glucose-glo detection mixture as per vendor recommendations (Luciferase detection buffer, Reductase, Reductase substrate, Glucose dehydrogenase, and NAD) in read-out plates (solid white 384-well plates) and incubated for 1 h at RT. The plates were read using a plate reader with luminescence capabilities. Each compound concentration Relative Luminescence Unit (RLU) was averaged and normalized to the average RLU of the positive and negative controls to obtain a percentage inhibition. The normalized data vs. concentration was plotted; to determine the half-maximal concentration (IC50), the Levenberg-Marquardt algorithm was used to fit a Hill equation to the dose response data.
The results are shown in Table 3 below, which reports the IC50 of each compound. Unless otherwise specified, IC50 values are reported as the geometric mean of at least 2 assay runs on separate days. As shown in the table below, the compounds of the present invention are potent inhibitors of human GYS1. Unless otherwise specified, IC50 values are reported as the geometric mean of at least two assay runs on separate days. Each run represents the average of a technical replicate, where each compound was assayed twice in the same plate. A superscript “#” symbol in Table 3 indicates results from a single assay run.

[2] = biological target: hGYS2 enzyme (recombinant hGYS2/GN1 protein) (Homo sapiens (Human), UniProt P54840); test: GYS2 coupled enzyme assay (PK/LDH); format: biochemical; conditions: geometric mean of at least 2 assay runs on separate days, read-out: Avg_IC50
Chain of hGYS2 enzyme (recombinant hGYS2/GN1 protein) (P54840 whole entry): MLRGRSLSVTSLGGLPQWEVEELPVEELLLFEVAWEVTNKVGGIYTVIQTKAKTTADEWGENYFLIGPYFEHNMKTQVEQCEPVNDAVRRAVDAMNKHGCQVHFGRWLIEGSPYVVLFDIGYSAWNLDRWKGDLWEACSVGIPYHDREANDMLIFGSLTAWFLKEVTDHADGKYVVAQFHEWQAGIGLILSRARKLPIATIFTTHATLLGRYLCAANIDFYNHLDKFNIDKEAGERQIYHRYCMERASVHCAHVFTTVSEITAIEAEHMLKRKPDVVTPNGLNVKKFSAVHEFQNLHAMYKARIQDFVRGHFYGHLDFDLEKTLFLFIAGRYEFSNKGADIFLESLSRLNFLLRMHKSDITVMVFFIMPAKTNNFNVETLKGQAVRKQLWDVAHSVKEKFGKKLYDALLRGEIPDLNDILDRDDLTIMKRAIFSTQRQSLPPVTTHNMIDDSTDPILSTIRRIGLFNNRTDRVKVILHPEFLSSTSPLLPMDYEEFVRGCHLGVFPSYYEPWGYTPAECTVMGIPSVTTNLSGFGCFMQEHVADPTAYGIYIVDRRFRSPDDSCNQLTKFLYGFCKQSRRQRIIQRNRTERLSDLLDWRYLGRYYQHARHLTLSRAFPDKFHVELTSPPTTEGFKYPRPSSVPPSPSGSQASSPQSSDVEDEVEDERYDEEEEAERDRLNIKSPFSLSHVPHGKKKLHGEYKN
Chain of hGYS2 enzyme (recombinant hGYS2/GN1 protein) (P46976 whole entry partner): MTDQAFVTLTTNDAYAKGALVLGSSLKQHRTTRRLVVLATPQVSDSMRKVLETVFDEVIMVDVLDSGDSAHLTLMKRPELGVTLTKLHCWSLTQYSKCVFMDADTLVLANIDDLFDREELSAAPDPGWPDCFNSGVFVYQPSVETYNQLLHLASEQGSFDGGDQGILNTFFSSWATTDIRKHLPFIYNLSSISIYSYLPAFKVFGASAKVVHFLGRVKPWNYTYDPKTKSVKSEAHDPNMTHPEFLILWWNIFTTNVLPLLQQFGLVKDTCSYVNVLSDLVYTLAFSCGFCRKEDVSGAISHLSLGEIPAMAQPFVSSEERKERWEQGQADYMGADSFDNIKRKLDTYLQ
Method in brief: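 Recombinant hGYS2/GN1 (200 nM) with 2 mM UDP-glucose, 0.2% rabbit liver glycogen, 2 mM glucose-6-phosphate; UDP coupled via PK/LDH (2 mM PEP, 0.6 mM NADH). Buffer 50 mM Tris pH 7.5, 2 mM MgCl2, 100 mM KCl, 2.5% DMSO. A340 slope over 10 min; IC50 from Hill fit of duplicates.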

[3] = biological target: hGYS1 enzyme (recombinant hGYS1/GN1 protein) (Homo sapiens (Human), UniProt P13807); test: GYS1 coupled enzyme assay (PK/LDH); format: biochemical; conditions: hGYS1/GN1 50 nM, UDP-Glucose 0.8 mM, G6P 1 mM; geometric mean of at least 2 runs
Chain of hGYS1 enzyme (recombinant hGYS1/GN1 protein) (P13807 whole entry): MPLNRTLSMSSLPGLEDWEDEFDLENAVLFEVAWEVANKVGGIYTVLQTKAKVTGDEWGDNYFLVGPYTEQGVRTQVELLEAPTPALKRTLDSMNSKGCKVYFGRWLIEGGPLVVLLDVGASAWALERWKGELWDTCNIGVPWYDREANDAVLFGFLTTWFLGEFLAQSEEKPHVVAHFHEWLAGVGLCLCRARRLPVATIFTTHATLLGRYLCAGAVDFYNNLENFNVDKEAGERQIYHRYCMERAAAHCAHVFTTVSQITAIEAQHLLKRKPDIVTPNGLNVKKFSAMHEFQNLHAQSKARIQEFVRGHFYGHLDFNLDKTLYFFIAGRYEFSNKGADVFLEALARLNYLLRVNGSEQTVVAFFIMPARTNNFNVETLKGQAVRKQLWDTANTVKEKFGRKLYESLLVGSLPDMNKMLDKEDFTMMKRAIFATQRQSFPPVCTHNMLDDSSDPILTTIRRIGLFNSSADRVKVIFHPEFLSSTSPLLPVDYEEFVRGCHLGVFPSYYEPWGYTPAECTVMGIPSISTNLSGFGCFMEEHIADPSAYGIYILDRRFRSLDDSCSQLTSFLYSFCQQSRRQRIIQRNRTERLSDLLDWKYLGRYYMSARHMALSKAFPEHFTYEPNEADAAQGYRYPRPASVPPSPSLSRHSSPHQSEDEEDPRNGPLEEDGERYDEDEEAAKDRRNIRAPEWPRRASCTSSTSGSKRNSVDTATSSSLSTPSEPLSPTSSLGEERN
Chain of hGYS1 enzyme (recombinant hGYS1/GN1 protein) (P46976 whole entry partner): as the sequence (P46976 whole entry partner) above

IC50 [1]: 3290 nM
Compound: COc1cccc(C(NC(=O)[C@@H]2C[C@@H](F)CN2C(C)=O)c2ccc(C(C)C)c(F)n2)c1 (single isomer, unassigned) [Compound 654, (2S,4R)-1-acetyl-4-fluoro-N-[(S) or (R)-[6-fluoro-5-(propan-2-yl)pyridin-2-yl](3-methoxyphenyl)methyl]pyrrolidine-2-carboxamide]

IC50 [1]: 9200 nM
Compound: CC(=O)N1C[C@H](F)C[C@H]1C(=O)NC(c1cccc(-c2cc(C)nn2C)c1)c1ccc(C(C)C)c(F)n1 (single isomer, unassigned) [Compound 697, (2S,4R)-1-acetyl-N-[(S) or (R)-[3-(1,3-dimethyl-1H-pyrazol-5-yl)phenyl][6-fluoro-5-(propan-2-yl)pyridin-2-yl]methyl]-4-fluoropyrrolidine-2-carboxamide]

IC50 [2]: > 100000 nM
IC50 [3]: 273 nM
Compound: CC(C)c1ccc([C@@H](NC(=O)[C@@H]2CCCN2C(=O)Cc2cnn[nH]2)c2cccc3[nH]c(=O)[nH]c23)cc1 [Compound 644, (2S)-N-[(R)-(2-oxo-2,3-dihydro-1H-1,3-benzodiazol-4-yl)[4-(propan-2-yl)phenyl]methyl]-1-[2-(1H-1,2,3-triazol-5-yl)acetyl]pyrrolidine-2-carboxamide]

IC50 [2]: > 100000 nM
IC50 [3]: 100 nM
Compound: CC(C)c1ccc([C@@H](NC(=O)[C@@H]2C[C@@H](F)CN2C(=O)Cc2cnn[nH]2)c2cccc(F)c2)cc1F [Compound 645, (2S,4R)-4-fluoro-N-[(S)-[3-fluoro-4-(propan-2-yl)phenyl](3-fluoropheny)methyl]-1-[2-(1H-1,2,3-triazol-5-yl)acetyl]pyrrolidine-2-carboxamide]

IC50 [2]: > 100000 nM
IC50 [3]: 48 nM
Compound: CC(C)c1ccc([C@@H](NC(=O)[C@@H]2C[C@@H](F)CN2C(=O)Cc2cnn[nH]2)c2ccc(F)cc2)cc1F [Compound 646, (2S,4R)-4-fluoro-N-[(S)-[3-fluoro-4-(propan-2-yl)phenyl](4-fluorophenyl)methyl]-1-[2-(1H-1,2,3-triazol-5-yl)acetyl]pyrrolidine-2-carboxamide]

IC50 [2]: > 100000 nM
IC50 [3]: 115 nM
Compound: O=C(N[C@@H](c1ccccc1)c1ccc(C2CC2)c(Cl)c1)[C@@H]1C[C@@H](F)CN1C(=O)Cc1cnn[nH]1 [Compound 664, (2S,4R)-N-[(S)-(3-chloro-4-cyclopropylphenyl) (phenyl)methyl]-4-fluoro-1-[2-(1H-1,2,3-triazol-5-yl)acetyl]pyrrolidine-2-carboxamide]

IC50 [2]: > 100000 nM
IC50 [3]: 99 nM
Compound: Cc1cc([C@@H](NC(=O)[C@@H]2C[C@@H](F)CN2C(=O)Cc2cnn[nH]2)c2ccccc2)ccc1C1CC1 [Compound 665, (2S,4R)-N-[(S)-(4-cyclopropyl-3-methylphenyl) (phenyl)methyl]-4-fluoro-1-[2-(1H-1,2,3-triazol-5-yl)acetyl]pyrrolidine-2-carboxamide]

IC50 [2]: > 100000 nM
IC50 [3]: 849 nM
Compound: CC(C)c1ccc([C@H](NC(=O)[C@@H]2C[C@@H](F)CN2C(=O)Cc2cnn[nH]2)c2ccccc2)cc1Cl [Compound 671, (2S,4R)-N-[(R)-[3-chloro-4-(propan-2-yl)phenyl](phenyl)methyl]-4-fluoro-1-[2-(1H-1,2,3-triazol-5-yl)acetyl]pyrrolidine-2-carboxamide]

IC50 [2]: > 100000 nM
IC50 [3]: 47 nM
Compound: CC(=O)N[C@@H](CC(N)=O)C(=O)N1C[C@H](F)C[C@H]1C(=O)N[C@@H](c1ccccc1)c1ccc(C(C)C)c(F)c1 [Compound 765, (2S,4R)-1-[(2S)-3-carbamoyl-2-acetamidopropanoyl]-4-fluoro-N-[(S)-[3-fluoro-4-(propan-2-yl)phenyl](phenyl)methyl] pyrrolidine-2-carboxamide]

More lines, now with the values behind:

Compound: Cc1nnc(CC(=O)N2C[C@H](F)C[C@H]2C(=O)N[C@@H](c2ccccc2)c2ccc(C3CC3)c(F)c2)[nH]1 [Compound 434, (2S,4R)-N-[(S)-(4-cyclopropyl-3-fluorophenyl)(phenyl)methyl]-4-fluoro-1-[2-(5-methyl-4H-1,2,4-triazol-3-yl)acetyl]pyrrolidine-2-carboxamide]
IC50 [2]: > 100000 nM
IC50 [3]: 109 nM

Compound: O=C(N[C@@H](c1ccccc1)c1ccc(C2CC2)c(F)c1)[C@@H]1C[C@@H](F)CN1C(=O)Cn1cccn1 [Compound 435, (2S,4R)-N-[(S)-(4-cyclopropyl-3-fluorophenyl)(phenyl)methyl]-4-fluoro-1-[2-(1H-pyrazol-1-yl)acetyl]pyrrolidine-2-carboxamide]
IC50 [2]: > 100000 nM
IC50 [3]: 149 nM

Compound: O=C(N[C@@H](c1ccccc1)c1ccc(C2CC2)c(F)c1)[C@@H]1C[C@@H](F)CN1C(=O)Cc1ccn[nH]1 [Compound 436, (2S,4R)-N-[(S)-(4-cyclopropyl-3-fluorophenyl)(phenyl)methyl]-4-fluoro-1-[2-(1H-pyrazol-5-yl)acetyl]pyrrolidine-2-carboxamide]
IC50 [2]: > 100000 nM
IC50 [3]: 173 nM

Compound: O=C(N[C@@H](c1ccccc1)c1ccc(C2CC2)c(F)c1)[C@@H]1C[C@@H](F)CN1C(=O)Cc1cn[nH]c1 [Compound 437, (2S,4R)-N-[(S)-(4-cyclopropyl-3-fluorophenyl)(phenyl)methyl]-4-fluoro-1-[2-(1H-pyrazol-4-yl)acetyl]pyrrolidine-2-carboxamide]
IC50 [2]: > 100000 nM
IC50 [3]: 157 nM

Compound: CN(C)C(=O)NCC(=O)N1C[C@H](F)C[C@H]1C(=O)N[C@@H](c1ccccc1)c1ccc(C2CC2)c(F)c1 [Compound 441, (2S,4R)-N-[(S)-(4-cyclopropyl-3-fluorophenyl)(phenyl)methyl]-1-{2-[(dimethylcarbamoyl)amino]acetyl}-4-fluoropyrrolidine-2-carboxamide]
IC50 [2]: > 100000 nM
IC50 [3]: 51 nM

Compound: O=C(N[C@@H](c1ccccc1)c1ccc(C2CC2)c(F)c1)[C@@H]1C[C@@H](F)CN1C(=O)Cc1cccc2ncccc12 [Compound 443, (2S,4R)-N-[(S)-(4-cyclopropyl-3-fluorophenyl)(phenyl)methyl]-4-fluoro-1-[2-(quinolin-5-yl)acetyl]pyrrolidine-2-carboxamide]
IC50 [2]: > 100000 nM
IC50 [3]: 28 nM

Compound: Cc1n[nH]c(C)c1CC(=O)N1C[C@H](F)C[C@H]1C(=O)N[C@@H](c1ccccc1)c1ccc(C2CC2)c(F)c1 [Compound 444, (2S,4R)-N-[(S)-(4-cyclopropyl-3-fluorophenyl)(phenyl)methyl]-1-[2-(3,5-dimethyl-1H-pyrazol-4-yl)acetyl]-4-fluoropyrrolidine-2-carboxamide]
IC50 [2]: > 100000 nM
IC50 [3]: 44 nM

Compound: CC(C)c1ccc([C@@H](NC(=O)[C@@H]2C[C@@H](F)CN2C(=O)Cc2cnn[nH]2)c2cccnc2N)cc1F [Compound 613, (2S,4R)-1-(2-(1H-1,2,3-triazol-5-yl)acetyl)-N—((R)-(2-aminopyridin-3-yl)(3-fluoro-4-isopropylphenyl)methyl)-4-fluoropyrrolidine-2-carboxamide]
IC50 [2]: > 100000 nM
IC50 [3]: 130 nM

Compound: COc1ccccc1[C@H](NC(=O)[C@@H]1CCCN1C(C)=O)c1ccc(C(C)C)cc1 [Compound 639, (2S)-1-acetyl-N-[(R)-(2-methoxyphenyl)[4-(propan-2-yl)phenyl]methyl] pyrrolidine-2-carboxamide]
IC50 [2]: > 100000 nM
IC50 [3]: 921 nM

Compound: CC(=O)N1CCC[C@H]1C(=O)N[C@H](c1ccc(C(C)C)cc1)c1ccccc1C [Compound 640, (2S)-1-acetyl-N-[(R)-(2-methylphenyl)[4-(propan-2-yl)phenyl]methyl] pyrrolidine-2-carboxamide]
IC50 [2]: > 100000 nM
IC50 [3]: 1440 nM

Compound: (2S,4R)-N-[(S)-(4- cyclopropyl-3- fluorophenyl)(phenyl) methyl]-4-fluoro-1- [2-(1H-1,2,3-triazol-5- yl)acetyl]pyrrolidine- 2-carboxamide [Compound 439]
IC50 [2]: > 100000 nM
IC50 [3]: 185 nM
